The molecules below were run against KRas G12C (Homo sapiens, UniProt P01116, G12C) (assay: Cellular inhibition of KRas G12C measured by Phospho-ERK in NCI-H358 cells). Details: pERK(Thr202/Tyr204) normalized with GAPDH, NCI-H358 cells, 3 hours; read-out: IC50.
Type: cell-based
In short: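 Following 8-12 h attachment, NCI-H358 cells got serially diluted compound (0.5% DMSO) for 3 hours. Cells were then fixed, permeabilized with cold methanol, and stained for pERK(Thr202/Tyr204) and GAPDH. Ratios were converted to percent of DMSO control, with IC50 obtained by four-parameter regression.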

Sequence of KRas G12C (P01116 1-188 isoform P01116-2 G12C): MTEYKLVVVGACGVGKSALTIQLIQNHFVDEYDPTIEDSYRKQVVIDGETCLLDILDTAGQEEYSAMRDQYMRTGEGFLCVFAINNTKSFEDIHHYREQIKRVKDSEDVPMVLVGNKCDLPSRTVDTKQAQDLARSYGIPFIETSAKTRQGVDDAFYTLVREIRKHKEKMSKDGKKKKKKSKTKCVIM

IC50 | SMILES
> 1000 nM | C=CC(=O)N1CCN(c2nc(OC[C@@H]3CCCN3C)nc3c2CCN(c2cccc4ccc(OC)cc24)C3)CC1CC#N (stereo partly drawn) [Example 288, 2-[4-[7-(7-methoxy-1-naphthyl)-2-[[(2S)-1-methylpyrrolidin-2-yl]methoxy]-6,8-dihydro-5H-pyrido[3,4-d]pyrimidin-4-yl]-1-prop-2-enoyl-piperazin-2-yl]acetonitrile]
0.1 to 1000 nM | C=CC(=O)N1CCN(c2nc(OCCN3CCC[C@H](F)C3)nc3c2CCN(c2cc(O)cc4ccccc24)C3)CC1 [Example 111, (S)-1-(4-(2-(2-(3-fluoropiperidin-1-yl)ethoxy)-7-(3-hydroxynaphthalen-1-yl)-5,6,7,8-tetrahydropyrido[3,4-d]pyrimidin-4-yl)piperazin-1-yl)prop-2-en-1-one]
0.1 to 1000 nM | C=C(F)C(=O)N1CCN(c2nc(OC[C@@H]3CCCN3C)nc3c2CCN(c2cccc(C)c2C)C3)C[C@@H]1CC#N [Example 472, 2-[(2S)-4-[7-(2,3-dimethylphenyl)-2-[[(2S)-1-methylpyrrolidin-2-yl]methoxy]-6,8-dihydro-5H-pyrido[3,4-d]pyrimidin-4-yl]-1-(2-fluoroprop-2-enoyl)piperazin-2-yl]acetonitrile]
> 1000 nM | CN(C)C/C=C/C(=O)N1CCN(c2nc(OC[C@@H]3CCCN3C)nc3c2CCN(c2cc(O)cc4ccccc24)C3)CC1 [Example 199, (S,E)-4-(dimethylamino)-1-(4-(7-(3-hydroxynaphthalen-1-yl)-2-((1-methylpyrrolidin-2-yl)methoxy)-5,6,7,8-tetrahydropyrido[3,4-d]pyrimidin-4-yl)piperazin-1-yl)but-2-en-1-one]
0.1 to 1000 nM | C=CC(=O)N1CCN(c2nc(O[C@H](C)CN(C)C)nc3c2CCN(c2cc(O)cc4ccccc24)C3)[C@@H](C)C1 [Example 115, 1-((S)-4-(2-(((R)-1-(dimethylamino)propan-2-yl)oxy)-7-(3-hydroxynaphthalen-1-yl)-5,6,7,8-tetrahydropyrido[3,4-d]pyrimidin-4-yl)-3-methylpiperazin-1-yl)prop-2-en-1-one]
> 1000 nM | C=C(C)C(=O)N1CCN(c2nc(OC[C@@H]3CCCN3C)nc3c2CCN(c2cccc4ccccc24)C3)CC1CC#N (stereo partly drawn) [Example 261, 2-[1-(2-methylprop-2-enoyl)-4-[2-[[(2S)-1-methylpyrrolidin-2-yl]methoxy]-7-(1-naphthyl)-6,8-dihydro-5H-pyrido[3,4-d]pyrimidin-4-yl]piperazin-2-yl]acetonitrile]
> 1000 nM | C=CC(=O)N1CCN(c2nc(OC[C@@H]3CCCN3C)nc3c2CCN(c2cccc4ccccc24)C3)C(C)(C)C1 [Example 354, 1-[3,3-dimethyl-4-[2-[[(2S)-1-methylpyrrolidin-2-yl]methoxy]-7-(1-naphthyl)-6,8-dihydro-5H-pyrido[3,4-d]pyrimidin-4-yl]piperazin-1-yl]prop-2-en-1-one]
0.1 to 1000 nM | C=CC(=O)N1CCN(c2nc(O[C@H](C)[C@H]3CCCN3C)nc3c2CCN(c2cc(O)cc4ccccc24)C3)C[C@@H]1CC#N [Example 348, 2-[(2S)-4-[7-(3-hydroxy-1-naphthyl)-2-[(1R)-1-[(2R)-1-methylpyrrolidin-2-yl]ethoxy]-6,8-dihydro-5H-pyrido[3,4-d]pyrimidin-4-yl]-1-prop-2-enoyl-piperazin-2-yl]acetonitrile]
> 1000 nM | CC(C)=CC(=O)N1CCN(c2nc(OC[C@@H]3CCCN3C)nc3c2CCN(c2cccc4ccccc24)C3)CC1CC#N (stereo partly drawn) [Example 282, 2-(1-(3-methylbut-2-enoyl)-4-(2-(((S)-1-methylpyrrolidin-2-yl)methoxy)-7-(naphthalen-1-yl)-5,6,7,8-tetrahydropyrido[3,4-d]pyrimidin-4-yl)piperazin-2-yl)acetonitrile]

Second part, the molecule before the results:

SMILES | IC50
C=CC(=O)N1CCN(c2nc(OC[C@@H]3CCCN3C)nc3c2CCN(c2cccc(F)c2OC)C3)CC1CC#N (stereo partly drawn) [Example 308, 2-(1-acryloyl-4-(7-(3-fluoro-2-methoxyphenyl)-2-(((S)-1-methylpyrrolidin-2-yl)methoxy)-5,6,7,8-tetrahydropyrido[3,4-d]pyrimidin-4-yl)piperazin-2-yl)acetonitrile] | 0.1 to 1000 nM
C=CC(=O)N1CCN(c2ncnc3c2CCN(C(CO)c2ccccc2)C3)CC1 (centres unmarked) [Example 71, 1-(4-(7-(2-hydroxy-1-phenylethyl)-5,6,7,8-tetrahydropyrido[3,4-d]pyrimidin-4-yl)piperazin-1-yl)prop-2-en-1-one] | > 1000 nM
C=CC(=O)N1CCN(c2nc(OC[C@@H]3CCCN3C)nc3c2CCN(c2cccc(OC)c2C)C3)C[C@@H]1CC#N [Example 324, 2-[(2S)-4-[7-(3-methoxy-2-methyl-phenyl)-2-[[(2S)-1-methylpyrrolidin-2-yl]methoxy]-6,8-dihydro-5H-pyrido[3,4-d]pyrimidin-4-yl]-1-prop-2-enoyl-piperazin-2-yl]acetonitrile] | 0.1 to 1000 nM
C=CC(=O)N1CCN(c2nc(OC[C@@H]3CCCN3C(C)C)nc3c2CCN(c2cccc4ccccc24)C3)C[C@@H]1CC#N [Example 320, 2-[(2S)-4-[2-[[(2S)-1-isopropylpyrrolidin-2-yl]methoxy]-7-(1-naphthyl)-6,8-dihydro-5H-pyrido[3,4-d]pyrimidin-4-yl]-1-prop-2-enoyl-piperazin-2-yl]acetonitrile] | 0.1 to 1000 nM
C=CC(=O)N1CCN(c2nc(OCCN3CCCCC3)nc3c2CCN(c2cccc4ccccc24)C3)C[C@@H]1CC#N [Example 409, (S)-2-(1-acryloyl-4-(7-(naphthalen-1-yl)-2-(2-(piperidin-1-yl)ethoxy)-5,6,7,8-tetrahydropyrido[3,4-d]pyrimidin-4-yl)piperazin-2-yl)acetonitrile] | 0.1 to 1000 nM
C=CC(=O)N1CCN(c2nc(O[C@H](C)CN(C)C)nc3c2CCN(c2c(C)ccc4[nH]ncc24)C3)CC1CC#N (stereo partly drawn) [Example 152, 2-[4-[2-[(1R)-2-(dimethylamino)-1-methyl-ethoxy]-7-(5-methyl-1H-indazol-4-yl)-6,8-dihydro-5H-pyrido[3,4-d]pyrimidin-4-yl]-1-prop-2-enoyl-piperazin-2-yl]acetonitrile] | 0.1 to 1000 nM
C=CC(=O)N1CCN(c2nc(OC[C@@H]3CCCN3C)nc3c2CCN(c2cccc4cnccc24)C3)CC1CC#N (stereo partly drawn) [Example 262, 2-[4-[7-(5-isoquinolyl)-2-[[(2S)-1-methylpyrrolidin-2-yl]methoxy]-6,8-dihydro-5H-pyrido[3,4-d]pyrimidin-4-yl]-1-prop-2-enoyl-piperazin-2-yl]acetonitrile] | > 1000 nM
C=CC(=O)N1CCN(c2nc(N3CC[C@H](N(C)C)C3)nc3c2CCN(c2cccc4ccccc24)C3)C[C@@H]1CC#N [Example 403] | 0.1 to 1000 nM
C=CC(=O)N1CCN(c2nc(OC[C@@H]3CCCN3C)nc3c2CCN(c2cccnc2C(F)(F)F)C3)CC1CC#N (stereo partly drawn) [Example 226, 2-(1-acryloyl-4-(2-(((S)-1-methylpyrrolidin-2-yl)methoxy)-7-(2-(trifluoromethyl)pyridin-3-yl)-5,6,7,8-tetrahydropyrido[3,4-d]pyrimidin-4-yl)piperazin-2-yl)acetonitrile] | 0.1 to 1000 nM
C=CC(=O)N1CCN(c2nc(N3CCCC3)nc3c2CCN(c2cc(O)cc4ccccc24)C3)CC1 [Example 119, 1-(4-(7-(3-hydroxynaphthalen-1-yl)-2-(pyrrolidin-1-yl)-5,6,7,8-tetrahydropyrido[3,4-d]pyrimidin-4-yl)piperazin-1-yl)prop-2-en-1-one] | > 1000 nM
C=C(F)C(=O)N1CCN(c2nc(OC[C@@H]3CCC(=O)N3C)nc3c2CCN(c2cccc4cccc(C)c24)C3)C[C@@H]1CC#N [Example 569, 2-[(2S)-1-(2-Fluoroprop-2-enoyl)-4-[7-(8-methyl-1-naphthyl)-2-[[(2S)-1-methyl-5-oxo-pyrrolidin-2-yl]methoxy]-6,8-dihydro-5H-pyrido[3,4-d]pyrimidin-4-yl]piperazin-2-yl]acetonitrile] | > 1000 nM
C=CC(=O)N1CCN(c2nc(OC[C@@H]3CCCN3C)nc3c2CCN(c2cccc(F)c2Cl)C3)C[C@@H]1CC#N [Example 406, 2-((S)-1-acryloyl-4-(7-(2-chloro-3-fluorophenyl)-2-(((S)-1-methylpyrrolidin-2-yl)methoxy)-5,6,7,8-tetrahydropyrido[3,4-d]pyrimidin-4-yl)piperazin-2-yl)acetonitrile] | 0.1 to 1000 nM
C=CC(=O)N1CCN(c2nc(OCCN(C)CCOC)nc3c2CCN(c2cc(O)cc4ccccc24)C3)CC1 [Example 107, 1-(4-(7-(3-hydroxynaphthalen-1-yl)-2-(2-((2-methoxyethyl)(methyl)amino)ethoxy)-5,6,7,8-tetrahydropyrido[3,4-d]pyrimidin-4-yl)piperazin-1-yl)prop-2-en-1-one] | > 1000 nM
C=CC(=O)N1CCN(c2nc(OC(C)CN(C)C)nc3c2CCN(c2cc(O)cc4ccccc24)C3)CC1 (centres unmarked) [Example 11, 1-(4-(2-((1-(dimethylamino)propan-2-yl)oxy)-7-(3-hydroxynaphthalen-1-yl)-5,6,7,8-tetrahydropyrido[3,4-d]pyrimidin-4-yl)piperazin-1-yl)prop-2-en-1-one] | 0.1 to 1000 nM
C=CC(=O)N1CCN(c2nc(OC[C@@H]3CCCN3C)nc3c2CCN(c2cccc4cccc(F)c24)C3)C[C@@H]1CC#N [Example 338] | 0.1 to 1000 nM
C=CC(=O)N1CCN(c2nc(OCCN3CCC(F)(F)C3)nc3c2CCN(c2cc(O)cc4ccccc24)C3)CC1 [Example 139, 1-[4-[2-[2-(3,3-difluoropyrrolidin-1-yl)ethoxy]-7-(3-hydroxy-1-naphthyl)-6,8-dihydro-5H-pyrido[3,4-d]pyrimidin-4-yl]piperazin-1-yl]prop-2-en-1-one] | > 1000 nM
C=CC(=O)N1CCN(c2nc(OCc3ncc[nH]3)nc3c2CCN(c2cccc4ccccc24)C3)C[C@@H]1CC#N [Example 351, 2-[(2S)-4-[2-(1H-imidazol-2-ylmethoxy)-7-(1-naphthyl)-6,8-dihydro-5H-pyrido[3,4-d]pyrimidin-4-yl]-1-prop-2-enoyl-piperazin-2-yl]acetonitrile] | 0.1 to 1000 nM

— patent US10689377B2 (Mirati Therapeutics, Inc., priority 2017, dated 2020)
